Assays:
Conditions in all cases: for Culm Diameter / Leaf Width / Plant Height / Tillers: 42 days after planting
[1] = test system: sugarcane Variety RB 86-7515; test: Greenhouse pot test, effect of formulated thiamethoxam on vigour; type: in vivo, sugar cane
Description: This trial was conducted on Variety RB 86-7515.

[2] = test system: sugar cane Variety RB 86-7515; test: Greenhouse pot test, effect of formulated clothianidin on vigour; type: in vivo
Description: Greenhouse test with sugarcane buds growing in pots were conducted to study the effect of clothianidin equivalent to an application rate of 200 g ai. ha^−1 on “vigour”, evaluating tillers, plant height, leaf width and culm diameter. This trial was conducted on sugar cane Variety RB 86-7515.
1) carretel with one bud treated with clothianidin (200 g ai. ha^−1) 2) carretel with one bud treated with clothianidin (200 g ai. ha^−1)+15% v/v of polymer 3) stalk with 3 buds untreated 4) carretel with one bud untreated+15% v/v of polymer 5) carretel with one bud untreated 6) stalk with 3 buds treated with clothianidin (200 g ai. ha^−1).
Twenty 1 L pots were filled with 16 L of clay soil, 1.6 L of sand and 8 g of nitrogen, 28 g of phosphorus (P2O5) and 16 g of potassium (K2O). Six carretels of 4 cm length with one bud were planted in each pot (treatments 1, 2, 4 and 5). Two stalks with three buds were planted in each control pot (treatments 3 and 6) to simulate conventional planting. A layer of 3 cm of soil was used to cover the carretels. The carretels of treatments 1 and 2 were treated with 200 g ai.ha^−1 of clothianidin, by dipping the carretels in a slurry for 3 min. The stalks were treated simulating a furrow application at 100 L.ha^−1 of slurry. The pots were maintained with adequate moisture during the test. Evaluations of: plant height, leaf width, culm diameter and number of tillers were performed at 20, 30 and 42 days after planting.

[3] = test system: sugar cane Variety RB 86-7515; test: Greenhouse pot test, effect of formulated abamectin on vigour; type: in vivo
Description: Greenhouse test with sugarcane buds growing in pots were conducted to study the effect of formulated abamectin regarding “vigour”, tillers, plant height, leaf width and culm diameter on sugar cane Variety RB 86-7515.
1) carretel with one bud treated with abamectin 2) carretel with one bud treated with abamectin+15% v/v of polymer 3) stalk with 3 buds untreated 4) carretel with one bud untreated 5) carretel with one bud untreated+15% v/v of polymer 6) stalk with 3 buds treated with abamectin.
Twenty 1 L pots were filled with 16 L of clay soil, 1.6 L of sand and 8 g of nitrogen, 28 g of phosphorus (P2O5) and 16 g of potassium (K2O). Six carretels of 4 cm length with only one bud were planted in each pot (treatments 1, 2, 4 and 5). Two stalks with three buds were planted in each control pot (treatments 3 and 6) to simulate conventional planting. A layer of 3 cm of soil was used to cover the carretels. The carretels of treatments 1, 2 were treated with 200 ml/ha of abamectin, by dipping the carretels in the slurry for 3 min, based on the uptake capacity of carretels. The stalks were treated simulating a furrow application at 100 L.ha^−1 of slurry. Experimental design adopted was randomized complete block with four replications. The pots were maintained with adequate moisture during the test. Evaluations of: plant height, leaf width, culm diameter and number of tillers were done at 20, 30 and 42 days after planting.

[4] = test system: sugar cane Variety RB 86-7515; test: Greenhouse pot test, effect of formulated fipronil on vigour; type: in vivo
Description: Greenhouse test with sugarcane buds growing in pots were conducted to study the effect of fipronil equivalent to an application rate of 200 g. ha^−1 on “vigour”, evaluating tillers, plant height, leaf width and culm diameter on sugar cane Variety RB 86-7515.
1) carretel with one bud treated with fipronil (200 g. ha^−1) 2) carretel with one bud treated with fipronil (200 g. ha^−1)+15% v/v of polymer 3) stalk with 3 buds untreated 4) carretel with one bud untreated 5) carretel with one bud untreated+15% v/v of polymer 6) stalk with 3 buds treated with fipronil (200 g. ha-1).
Twenty 1 L pots were filled with 16 L of clay soil, 1.6 L of sand and 8 g of nitrogen, 28 g to of phosphorus (P2O5) and 16 g of potassium (K2O). Six carretels of 4 cm length with one bud were planted in each pot (treatments 1, 2, 4 and 5). Two stalks with three buds were planted in each control pot (treatments 3 and 6) to simulate conventional planting. A layer of 3 cm of soil was used to cover the carretels. The carretels of treatments 1 and 2 were treated with 200 g ai.ha^−1 of fipronil, by dipping the carretels in the slurry for 3 min, based on the uptake capacity of carretels. The stalks were treated simulating a furrow application at 100 L.ha^−1 of slurry. Experimental design adopted was randomized complete block with four replications. The pots were maintained with adequate moisture during the test. Evaluations of: plant height, leaf width, culm diameter and number of tillers were done at 20, 30 and 42 days after planting.

[5] = test system: sugar cane Variety RB 86 7515; test: Greenhouse pot test, effect of formulated imidacloprid on vigour; type: in vivo
Description: 1) carretel with one bud treated with Imidacloprid (1200 g. ha^−1) 2) carretel with one bud treated with Imidacloprid (1200 g. ha^−1)+15% v/v of polymer 3) stalk with 3 buds untreated 4) carretel with one bud untreated 5) carretel with one bud untreated+15% v/v of polymer 6) stalk with 3 buds treated with Imidacloprid (1200 g. ha^−1).
Twenty 1 L pots were filled with 16 L of clay soil, 1.6 L of sand and 8 g of nitrogen, 28 g of phosphorus (P2O5) and 16 g of potassium (K2O). Six carretels of 4 cm length with one bud were planted in each pot (treatments 1, 2, 4 and 5). Two stalks with three buds were planted in each control pot (treatments 3 and 6) to simulate conventional planting. A layer of 3 cm of soil was used to cover the carretels. The carretels of treatments 1 and 2 were treated with 1200 g ai.ha^−1 of imidacloprid, by dipping the carretels in the slurry for 3 min, based on the uptake capacity of carretels. The stalks were treated simulating a furrow application at 100 L.ha^−1 of slurry. Experimental design adopted was randomized complete block with four replications. The pots were maintained with adequate moisture during the test. Evaluations of: plant height, leaf width, culm diameter and number of tillers were done at 20, 30 and 42 days after planting.

[6] = carretel with one bud, dipped in slurry, 420 g ai/ha (0.0 for Untreated + Polymer)
[7] = stalk with 3 buds, simulated furrow application, 420 g ai/ha
[8] = carretel with one bud, dipped in slurry, 200 g ai/ha (0.0 for Untreated + polymer)
[9] = stalk with 3 buds, simulated furrow application, 200 g ai/ha
[10] = carretel with one bud, dipped in slurry, 100 g ai/ha (0.0 for Untreated + Polymer)
[11] = stalk with 3 buds, simulated furrow application, 100 g ai/ha
[12] = carretel with one bud, dipped in slurry, 1200 g ai/ha (0.0 for Untreated + Polymer)
[13] = stalk with 3 buds, simulated furrow application, 1200 g ai/ha

## CN1COCN(Cc2cnc(Cl)s2)/C1=N\[N+](=O)[O-] [Thiamethoxam, thiamethoxam]
[1]; [6]
  Culm Diameter: 7.97 mm
  Leaf Width: 14.07 mm
  Plant Height: 23.67 cm
  Tillers: 15.5 number
[1]; result in words, carretels
  number of tillers in comparison with the corresponding controls: increased number of tillers
  plant height in comparison with the corresponding controls: reduced plant height
[1]; result in words, not apparent from the listed parameters
  increase in "quality" compared with the other treatments: increase in “quality” greater than the other treatments
[1]; [7]
  Culm Diameter: 10.17 mm
  Leaf Width: 19.5 mm
  Plant Height: 26.52 cm
  Tillers: 14.75 number

## CN/C(=N\[N+](=O)[O-])NCc1cnc(Cl)s1 [Clothianidin, clothianidin]
[2]; [8]
  Culm Diameter: 8.75 mm
  Leaf Width: 17.17 mm
  Plant Height: 25.02 cm
  Tillers: 14.5 number
[2]; result in words, carretels
  number of tillers in comparison with the corresponding control (untreated, one-bud): increased number of tillers
  plant height in comparison with the corresponding control (untreated, one-bud): slight reduction in the plant height
[2]; [9]
  Culm Diameter: 11.25 mm
  Leaf Width: 21.5 mm
  Plant Height: 22.73 cm
  Tillers: 17.0 number

## abamectin
[3]; [10]
  Culm Diameter: 7.67 mm
  Leaf Width: 14.58 mm
  Plant Height: 22.22 cm
  Tillers: 14 number
[3]; result in words
  number of tillers in comparison with the control: increase in the number of tillers
  plant height in comparison with the control: decrease in plant height
[3]; [11]
  Culm Diameter: 12.25 mm
  Leaf Width: 20.33 mm
  Plant Height: 22.54 cm
  Tillers: 19.5 number

## N#Cc1nn(-c2c(Cl)cc(C(F)(F)F)cc2Cl)c(N)c1[S+]([O-])C(F)(F)F (stereo not drawn) [Fipronil, fipronil]
[4]; [8]
  Culm Diameter: 8.69 mm
  Leaf Width: 14.16 mm
  Plant Height: 20.62 cm
  Tillers: 17.25 number
[4]; result in words
  height of the resultant plants in comparison with the control: decreased the height of the resultant plants
  number of tillers in comparison with the control: increased the number of tillers
[4]; [9]
  Culm Diameter: 10.75 mm
  Leaf Width: 18.91 mm
  Plant Height: 22.12 cm
  Tillers: 16.5 number

## O=[N+]([O-])NC1=NCCN1Cc1ccc(Cl)nc1 [Imidacloprid]
[5]; [12]
  Culm Diameter: 8.75 mm
  Leaf Width: 15.91 mm
  Plant Height: 24.0 cm
  Tillers: 15.25 number
[5]; result in words
  effect on vigour compared with the other active ingredients: less pronounced than with the other active ingredients
  number of tillers in comparison with the control: increase in the number of tillers
[5]; [13]
  Culm Diameter: 9.49 mm
  Leaf Width: 20.16 mm
  Plant Height: 23.49 cm
  Tillers: 12.0 number

Reference: US20100251434A1, “METHOD FOR GROWING SUGARCANE” (SYNGENTA CROP PROTECTION, INC., priority 2007, published 2010)
